Assay results from patent US10183918B2, “Oxa-azaspiro compounds having activity against pain” (LABORATORIOS DEL DR. ESTEVE S.A., priority 2015, dated 2019).

Tests used:
sigma-2 (σ2) site = sigma-2 (σ2) site (Homo sapiens, UniProt Q5BJF2); details: result in words, background; cited from earlier work
human σ1 receptor = biological target: T1, human σ1 receptor (Homo sapiens, UniProt Q99720); test: Human σ1 receptor radioligand assay; assay type: binding; details: transfected HEK-293 membranes, 5 nM [3H](+)-pentazocine as radioligand
T1 construct: expressed in transfected cells; host or cells: HEK-293 (membranes)
T1 sequence (Q99720 whole entry): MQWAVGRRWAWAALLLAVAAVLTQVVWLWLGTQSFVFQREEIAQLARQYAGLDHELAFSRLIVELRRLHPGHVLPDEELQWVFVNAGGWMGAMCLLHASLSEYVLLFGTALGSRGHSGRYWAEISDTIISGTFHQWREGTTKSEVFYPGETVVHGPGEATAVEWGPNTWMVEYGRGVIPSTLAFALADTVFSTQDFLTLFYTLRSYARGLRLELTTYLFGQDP
Procedure: Human σ1 Receptor Radioligand Assay
To investigate binding properties of test compounds to human σ1 receptor, transfected HEK-293 membranes and [^3H](+)-pentazocine (Perkin Elmer, NET-1056), as the radioligand, were used. The assay was carried out with 7 μg of membrane suspension, 5 nM of [^3H](+)-pentazocine in either absence or presence of either buffer or 10 μM Haloperidol for total and non-specific binding, respectively. Binding buffer contained Tris-HCl 50 mM at pH 8. Plates were incubated at 37° C. for 120 minutes. After the incubation period, the reaction mix was then transferred to Multiscreen HTS, FC plates (Millipore), filtered and plates were washed 3 times with ice-cold 10 mM Tris-HCL (pH7.4). Filters were dried and counted at approximately 40% efficiency in a MicroBeta scintillation counter (Perkin-Elmer) using EcoScint liquid scintillation cocktail

Sequence of sigma-2 (σ2) site (Q5BJF2 whole entry): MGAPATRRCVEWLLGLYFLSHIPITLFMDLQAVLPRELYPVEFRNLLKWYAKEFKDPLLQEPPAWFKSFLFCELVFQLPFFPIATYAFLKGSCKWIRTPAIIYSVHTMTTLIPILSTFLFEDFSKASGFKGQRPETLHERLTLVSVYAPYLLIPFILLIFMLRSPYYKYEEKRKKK

(+)SKF-10047
affinity for the sigma-2 (σ2) site (sigma-2 (σ2) site): micromolar affinity

CN[C@H]1CC[C@]2(CC1)CN(c1ccccc1)CC1(CC1)O2 [Example 26, (5r,8r)-N-rnethyl-12-phenyl-4-oxa-12-azadispiro[2.1.5.3]tridecan-8-amine acetate]
Ki (human σ1 receptor): ≥ 500 nM

CN[C@H]1CC[C@@]2(CC1)CN(c1ccccc1)CC1(CC1)O2 [Example 25, (5s,8s)-N-methyl-12-phenyl-4-oxa-12-azadispiro[2.1.5.3]tridecan-8-amine acetate]
Ki (human σ1 receptor): ≥ 500 nM

CCN1C[C@]2(CC[C@H](N(C)Cc3ccccc3)CC2)OCC1=O [Example 41, (6s,9s)-9-(benzyl(methyl)amino)-4-ethyl-1-oxa-4-azaspiro[5.5]undecan-3-one]
Ki (human σ1 receptor): < 500 nM

CCN1CC(C)(C)O[C@]2(CC[C@@H](N(C)CCc3ccccc3)CC2)C1 [Example 66, (6s,9s)-4-ethyl-N,2,2-trimethyl-N-phenethyl-1-oxa-4-azaspiro[5.5]undecan-9-amine]
Ki (human σ1 receptor): < 100 nM

CCN1C[C@]2(CC[C@@H](N(C)Cc3ccccc3)CC2)OC(C)(C)C1=O [Example 44, (6r,9r)-9-(benzyl(methyl)amino)-4-ethyl-2,2-dimethyl-1-oxa-4-azaspiro[5.5]undecan-3-one]
Ki (human σ1 receptor): < 500 nM

CCN1CC(C)(C)O[C@]2(CC[C@@H](N(C)CCC(C)C)CC2)C1 [Example 64, (6s,9s)-4-ethyl-N-isopentyl-N,2,2-trimethyl-1-oxa-4-azaspiro[5.5]undecan-9-amine]
Ki (human σ1 receptor): < 100 nM

CN[C@H]1CC[C@@]2(CC1)CN(C(=O)c1ccccc1)CC1(CC1)O2 [Example 50, ((5s,8s)-8-(methylamino)-4-oxa-12-azadispiro[2.1.5.3]tridecan-12-yl)(phenyl)methanone acetate]
Ki (human σ1 receptor): ≥ 500 nM

CCN1C[C@]2(CC[C@H](NC)CC2)OC(C)(C)C1=O [Example 48, (6s,9s)-4-ethyl-2,2-dimethyl-9-(methylamino)-1-oxa-4-azaspiro[5.5]undecan-3-one acetate]
Ki (human σ1 receptor): ≥ 500 nM

CN(Cc1ccccc1)[C@H]1CC[C@@]2(CC1)CN(c1ccccc1)C(=O)C1(CC1)O2 [Example 8, (5s,8s)-8-[benzyl(methyl)amino]-12-phenyl-4-oxa-12-azadispiro[2.1.5.3]tridecan-13-one]
Ki (human σ1 receptor): < 100 nM

CCN1C[C@]2(CC[C@@H](N(C)CCc3ccccc3)CC2)OC2(CC2)C1=O [Example 4, (5r,8r)-12-ethyl-8-[methyl(2-phenylethyl)amino]-4-oxa-12-azadispiro[2.1.5.3]tridecan-13-one]
Ki (human σ1 receptor): < 100 nM

CCN1C[C@]2(CC[C@H](N(C)CCc3ccccc3)CC2)OCC1=O [Example 51, (6s,9s)-4-ethyl-9-(methyl(phenethyl)amino)-1-oxa-4-azaspiro[5.5]undecan-3-one]
Ki (human σ1 receptor): < 500 nM

CCN1C[C@]2(CC[C@@H](NCc3ccccc3)CC2)OC2(CC2)C1=O [Example 2, (5r,8r)-8-(benzylamino)-12-ethyl-4-oxa-12-azadispiro[2.1.5.3]tridecan-13-one]
Ki (human σ1 receptor): < 500 nM

CCN1C[C@]2(CC[C@H](N(C)CCC(C)C)CC2)OC(C)(C)C1=O [Example 53, (6s,9s)-4-ethyl-9-(isopentyl(methyl)amino)-2,2-dimethyl-1-oxa-4-azaspiro[5.5]undecan-3-one]
Ki (human σ1 receptor): < 500 nM

CC(C)CN(C)[C@H]1CC[C@@]2(CC1)CN(Cc1ccccc1)CC1(CC1)O2 [Example 68, (5s,8s)-12-benzyl-N-isobutyl-N-methyl-4-oxa-12-azadispiro[2.1.5.3]tridecan-8-amine]
Ki (human σ1 receptor): < 100 nM

O=C1N(c2ccccc2)C[C@]2(CC[C@@H](NCc3ccccc3)CC2)OC12CC2 [Example 12, (5r,8r)-8-(benzylamino)-12-phenyl-4-oxa-12-azadispiro[2.1.5.3]tridecan-13-one]
Ki (human σ1 receptor): ≥ 500 nM

CCN1C[C@]2(CC[C@H](NCCc3ccccc3)CC2)OC2(CC2)C1=O [Example 6, (5s,8s)-12-ethyl-8-[(2-phenylethyl)amino]-4-oxa-12-azadispiro[2.1.5.3]tridecan-13-one]
Ki (human σ1 receptor): < 500 nM

CCN1C[C@]2(CC[C@H](N(C)Cc3ccccc3)CC2)OC(C)(C)C1=O [Example 43, (6s,9s)-9-(benzyl(methyl)amino)-4-ethyl-2,2-dimethyl-1-oxa-4-azaspiro[5.5]undecan-3-one]
Ki (human σ1 receptor): < 100 nM

CCN1C[C@]2(CC[C@@H](NC)CC2)OC2(CC2)C1=O [Example 21, (5r,8r)-12-ethyl-8-(methylamino)-4-oxa-12-azadispiro[2.1.5.3]tridecan-13-one acetate]
Ki (human σ1 receptor): ≥ 500 nM

CCN1CC(C)(C)O[C@]2(CC[C@@H](N(C)CC(C)C)CC2)C1 [Example 65, (6s,9s)-4-ethyl-N-isobutyl-N,2,2-trimethyl-1-oxa-4-azaspiro[5.5]undecan-9-amine]
Ki (human σ1 receptor): < 100 nM

CCN1CC2(CC2)O[C@]2(CC[C@H](N(C)Cc3ccccc3)CC2)C1 [Example 18, (5r,8r)-N-benzyl-12-ethyl-N-methyl-4-oxa-12-azadispiro[2.1.5.3]tridecan-8-amine]
Ki (human σ1 receptor): < 500 nM

CCN1C[C@]2(CC[C@H](N(C)CC(C)C)CC2)OCC1=O [Example 38, (6s,9s)-4-ethyl-9-(isobutyl(methyl)amino)-1-oxa-4-azaspiro[5.5]undecan-3-one]
Ki (human σ1 receptor): < 500 nM

CCN1C[C@]2(CC[C@H](NCc3ccccc3)CC2)OC(C)(C)C1=O [Example 39, (6s,9s)-9-(benzylamino)-4-ethyl-2,2-dimethyl-1-oxa-4-azaspiro[5.5]undecan-3-one]
Ki (human σ1 receptor): ≥ 500 nM

CN(Cc1ccccc1)[C@H]1CC[C@]2(CC1)CN(c1ccccc1)CC1(CC1)O2 [Example 20, (5r,8r)-N-benzyl-N-methyl-12-phenyl-4-oxa-12-azadispiro[2.1.53]tridecan-8-amine]
Ki (human σ1 receptor): < 100 nM

O=C1N(c2ccccc2)C[C@]2(CC[C@H](NCCc3ccccc3)CC2)OC12CC2 [Example 11, (5s,8s)-12-phenyl-8-[(2-phenylethyl)amino]-4-oxa-12-azadispiro[2.1.5.3]tridecan-13-one]
Ki (human σ1 receptor): < 500 nM

CCN1C[C@]2(CC[C@H](N(C)CC(C)C)CC2)OC2(CC2)C1=O [Example 33, (5s,8s)-12-ethyl-8-[methyl(2-methylpropyl)amino]-4-oxa-12-azadispiro[2.1.5.3]tridecan-13-one]
Ki (human σ1 receptor): < 500 nM

CCN1C[C@]2(CC[C@@H](N(C)Cc3ccccc3)CC2)OCC1=O [Example 42, (6r,9r)-9-(benzyl(methyl)amino)-4-ethyl-1-oxa-4-azaspiro[5.5]undecan-3-one]
Ki (human σ1 receptor): < 100 nM

O=C1N(c2ccccc2)C[C@]2(CC[C@@H](NCCc3ccccc3)CC2)OC12CC2 [Example 13]
Ki (human σ1 receptor): ≥ 500 nM

CCN1C[C@]2(CC[C@@H](NCc3ccccc3)CC2)OC(C)(C)C1=O [Example 40, (6r,9r)-9-(benzylamino)-4-ethyl-2,2-dimethyl-1-oxa-4-azaspiro[5.5]undecan-3-one]
Ki (human σ1 receptor): ≥ 500 nM

CCN1C[C@]2(CC[C@H](NC)CC2)OC2(CC2)C1=O [Example 22, (5s,8s)-12-ethyl-8-(methylamino)-4-oxa-12-azadispiro[2.1.5.3]tridecan-13-one acetate]
Ki (human σ1 receptor): ≥ 500 nM

CN[C@H]1CC[C@]2(CC1)CN(c1ccccc1)C(=O)C1(CC1)O2 [Example 24, (5r,8r)-8-(methylamino)-12-phenyl-4-oxa-12-azadispiro[2.1.5.3]tridecan-13-one acetate]
Ki (human σ1 receptor): ≥ 500 nM
